Like-named read-outs stand apart in the source and are kept apart here.
Key:
hERG potassium currents = target: T1, hERG potassium currents (Homo sapiens, UniProt Q12809); assay: hERG automated whole-cell patch clamp (QPatch), CHO cells; assay type: cell-based; settings: in words
T1 construct: expressed in transfected cells
Protocol: (§1) The in vitro inhibition assays of all final compounds against PI3K were performed by Shanghai ChemPartner Co., Ltd. (China). The antiproliferative activities of the compounds against A2780, U87MG, MCF7, and DU145 cell lines were tested by the standard MTT method. CHO cells stably expressing the transcript of hERG were investigated by the automated whole-cell patch clamp technique, using the QPatch system (Sophion). The compound was tested with Salmonella typhimurium strains TA98 and TA100 with the plate incorporation method at seven doses. Apoptosis was evaluated using the One-Step TUNEL Apoptosis Assay Kit (FITC) (cat. no. MA0223; Meilunbio, Dalian, China), according to the manufacturer’s protocol. Male and female SD rats (SLRC Laboratory Animal Inc., Shanghai, China) were used, and the detailed pharmacokinetic procedures are described in Supplementary Material.
(§2) To evaluate cardiotoxicity, it is necessary to test inhibitory activity on hERG potassium currents.

hERG = target: T2, hERG (Homo sapiens, UniProt Q12809); assay: as above; assay type: cell-based; settings: human, CHO cells stably expressing hERG; CHO cells expressing hERG, patch clamp; read-out: IC50 on hERG potassium currents
T2 construct: expressed in transfected cells
Protocol: as §1, §2

[1] = liver microsome stability, human; assay type: in vitro ADME; settings: liver microsomes
Protocol: (§3) The metabolic stability of 17p was evaluated in liver microsome assays, which measure clearance and half-life in rats and humans.

A2780 cells [2] = assay: MTT antiproliferative assay, A2780; assay type: cell-based; settings: Homo sapiens
Protocol: as §1

PI3Kδ = PI3Kδ (Homo sapiens, UniProt O00329); assay: in vitro PI3Kδ inhibition assay (isoform selectivity); assay type: biochemical; settings: Table 4
Chain of PI3Kδ (O00329 whole entry, canonical isoform): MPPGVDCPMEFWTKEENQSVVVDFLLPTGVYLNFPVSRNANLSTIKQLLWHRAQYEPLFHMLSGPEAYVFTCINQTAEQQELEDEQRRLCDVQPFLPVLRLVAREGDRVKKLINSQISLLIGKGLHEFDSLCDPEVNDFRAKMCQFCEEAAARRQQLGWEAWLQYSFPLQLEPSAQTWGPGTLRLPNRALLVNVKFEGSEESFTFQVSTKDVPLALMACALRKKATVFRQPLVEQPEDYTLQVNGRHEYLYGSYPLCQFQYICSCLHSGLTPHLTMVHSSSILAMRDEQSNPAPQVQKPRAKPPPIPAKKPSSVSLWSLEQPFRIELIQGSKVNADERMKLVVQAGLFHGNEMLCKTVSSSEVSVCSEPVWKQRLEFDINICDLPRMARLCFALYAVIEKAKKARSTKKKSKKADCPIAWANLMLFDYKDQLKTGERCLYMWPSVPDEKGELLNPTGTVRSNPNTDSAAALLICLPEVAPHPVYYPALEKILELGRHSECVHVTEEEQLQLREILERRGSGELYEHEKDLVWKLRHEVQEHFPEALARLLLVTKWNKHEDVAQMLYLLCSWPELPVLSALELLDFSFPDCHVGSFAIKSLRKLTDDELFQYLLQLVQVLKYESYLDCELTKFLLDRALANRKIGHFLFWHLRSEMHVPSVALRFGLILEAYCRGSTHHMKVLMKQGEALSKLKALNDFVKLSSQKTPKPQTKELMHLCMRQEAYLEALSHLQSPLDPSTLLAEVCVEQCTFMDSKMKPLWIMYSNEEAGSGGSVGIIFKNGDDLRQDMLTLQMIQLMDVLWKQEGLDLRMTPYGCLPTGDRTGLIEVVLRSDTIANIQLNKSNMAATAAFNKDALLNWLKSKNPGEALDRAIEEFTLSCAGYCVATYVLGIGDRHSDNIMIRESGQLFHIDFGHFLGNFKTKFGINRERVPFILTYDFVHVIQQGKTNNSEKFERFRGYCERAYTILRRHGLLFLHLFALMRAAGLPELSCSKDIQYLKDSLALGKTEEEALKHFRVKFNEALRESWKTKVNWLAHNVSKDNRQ
Chain of PI3Kδ (P27986 whole entry partner, canonical isoform): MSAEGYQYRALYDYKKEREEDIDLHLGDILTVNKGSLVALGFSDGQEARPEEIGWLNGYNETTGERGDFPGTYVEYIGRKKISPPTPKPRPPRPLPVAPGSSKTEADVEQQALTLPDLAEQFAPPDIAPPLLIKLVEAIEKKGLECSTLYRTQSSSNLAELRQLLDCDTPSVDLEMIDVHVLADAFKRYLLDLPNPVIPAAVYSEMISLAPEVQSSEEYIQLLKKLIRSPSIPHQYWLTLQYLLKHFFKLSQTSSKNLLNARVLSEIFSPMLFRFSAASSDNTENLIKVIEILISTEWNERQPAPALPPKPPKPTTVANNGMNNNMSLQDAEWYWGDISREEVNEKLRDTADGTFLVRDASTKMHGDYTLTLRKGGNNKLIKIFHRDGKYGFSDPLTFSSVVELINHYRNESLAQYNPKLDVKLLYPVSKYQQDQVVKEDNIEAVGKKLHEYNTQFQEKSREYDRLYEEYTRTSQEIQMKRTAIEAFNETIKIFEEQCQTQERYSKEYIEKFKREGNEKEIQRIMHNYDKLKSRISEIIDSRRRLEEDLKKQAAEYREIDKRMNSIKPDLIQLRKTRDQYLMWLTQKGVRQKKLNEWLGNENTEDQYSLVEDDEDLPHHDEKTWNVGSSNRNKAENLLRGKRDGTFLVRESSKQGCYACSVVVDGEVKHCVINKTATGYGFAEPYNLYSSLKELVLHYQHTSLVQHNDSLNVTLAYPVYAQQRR
Protocol: as §1

DU145 cells = assay: MTT antiproliferative assay, DU145; assay type: cell-based; settings: Homo sapiens, DU-145
Protocol: as §1

mTOR = mTOR (Homo sapiens, UniProt P42345); assay: in vitro mTOR inhibition assay (selectivity); assay type: biochemical; settings: Table 4
Protocol: as §1

MRC-5 cells = assay: inhibitory activity on normal cells, MRC-5; assay type: cell-based; settings: Homo sapiens, MRC5
Description: (§4) Several clinical PI3K candidates were severely intolerable to patients due to fatal hepatotoxicity and, thus, failed in clinical trials. Thus, evaluating the selectivity of compounds toward normal cells might reduce the risk of clinical failure of new compounds.

A2780 cells [3] = assay: TUNEL apoptosis assay in A2780; assay type: cell-based; settings: 24 h treatment
Protocol: as §1
The ED50 value of 17p cytotoxicity was determined using a multiple logistic regression model.

[4] = liver microsome stability, rat; assay type: in vitro ADME; settings: liver microsomes
Protocol: as §3

[5] = tested on: Salmonella typhimurium TA100; assay: Ames test, plate incorporation, TA100; assay type: cell-based
Protocol: as §1
(§5) S. typhimurium TA98 and TA100 were selected to conduct the Ames experiment to investigate the genotoxicity risk of compound 17p.

[6] = tested on: Salmonella typhimurium TA98; assay: Ames test, plate incorporation, TA98; assay type: cell-based
Protocol: as §1, §5

PI3Kγ = PI3Kγ (Homo sapiens, UniProt P48736); assay: in vitro PI3Kγ inhibition assay (isoform selectivity); assay type: biochemical; settings: Table 4
Chain of PI3Kγ (P48736 whole entry, canonical isoform): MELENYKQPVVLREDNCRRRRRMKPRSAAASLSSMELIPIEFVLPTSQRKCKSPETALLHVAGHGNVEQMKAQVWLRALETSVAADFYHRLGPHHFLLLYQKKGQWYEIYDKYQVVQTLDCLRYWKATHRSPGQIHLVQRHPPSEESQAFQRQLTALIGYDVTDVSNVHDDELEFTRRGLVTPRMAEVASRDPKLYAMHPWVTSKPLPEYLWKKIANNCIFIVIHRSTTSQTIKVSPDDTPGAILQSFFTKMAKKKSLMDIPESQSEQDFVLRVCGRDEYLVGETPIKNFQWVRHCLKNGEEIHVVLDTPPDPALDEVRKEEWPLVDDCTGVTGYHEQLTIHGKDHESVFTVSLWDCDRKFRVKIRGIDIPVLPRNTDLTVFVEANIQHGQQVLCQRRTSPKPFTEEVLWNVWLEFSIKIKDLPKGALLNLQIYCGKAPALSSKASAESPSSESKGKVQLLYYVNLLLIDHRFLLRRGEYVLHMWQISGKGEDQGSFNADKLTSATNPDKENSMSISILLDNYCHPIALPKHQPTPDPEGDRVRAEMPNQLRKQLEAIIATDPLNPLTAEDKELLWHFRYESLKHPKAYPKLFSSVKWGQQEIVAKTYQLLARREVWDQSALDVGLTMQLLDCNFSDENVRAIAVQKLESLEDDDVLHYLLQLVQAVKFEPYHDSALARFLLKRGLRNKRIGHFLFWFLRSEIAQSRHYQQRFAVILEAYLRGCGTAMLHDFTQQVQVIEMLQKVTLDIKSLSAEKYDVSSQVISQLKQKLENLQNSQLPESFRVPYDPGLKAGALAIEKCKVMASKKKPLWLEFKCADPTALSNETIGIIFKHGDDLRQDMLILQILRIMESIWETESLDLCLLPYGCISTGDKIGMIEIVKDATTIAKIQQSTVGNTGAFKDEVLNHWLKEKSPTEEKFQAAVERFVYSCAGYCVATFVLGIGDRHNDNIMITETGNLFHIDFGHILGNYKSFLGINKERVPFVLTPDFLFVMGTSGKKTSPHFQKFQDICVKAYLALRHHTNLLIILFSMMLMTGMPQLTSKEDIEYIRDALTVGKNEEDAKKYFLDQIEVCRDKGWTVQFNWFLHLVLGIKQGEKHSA
Protocol: as §1

U87MG cells = assay: MTT antiproliferative assay, U87MG; assay type: cell-based; settings: Homo sapiens, U-87 MG
Protocol: as §1

[7] = pharmacokinetics in SD rats; assay type: in vivo; design: area under the curve: unit not given here; settings: for AUC(0-t) / Cmax / half-life / Tmax / bioavailability: rat, plasma; for bioavailability: read-out: F (oral bioavailability)
Protocol: as §1
According to the good in vitro properties of compound 17p, we performed pharmacokinetic analyses in male and female SD rats at doses of 10 (po) and 2.5 mg/kg (iv), respectively (Table 9). The pharmacokinetic properties in male and female SD rats were […]. […] Thus, compound 17p had favorable pharmacokinetic properties.

PI3Kβ = PI3Kβ (Homo sapiens, UniProt P42338); assay: in vitro PI3Kβ inhibition assay (isoform selectivity); assay type: biochemical; settings: Table 4
Chain of PI3Kβ (P42338 whole entry, canonical isoform): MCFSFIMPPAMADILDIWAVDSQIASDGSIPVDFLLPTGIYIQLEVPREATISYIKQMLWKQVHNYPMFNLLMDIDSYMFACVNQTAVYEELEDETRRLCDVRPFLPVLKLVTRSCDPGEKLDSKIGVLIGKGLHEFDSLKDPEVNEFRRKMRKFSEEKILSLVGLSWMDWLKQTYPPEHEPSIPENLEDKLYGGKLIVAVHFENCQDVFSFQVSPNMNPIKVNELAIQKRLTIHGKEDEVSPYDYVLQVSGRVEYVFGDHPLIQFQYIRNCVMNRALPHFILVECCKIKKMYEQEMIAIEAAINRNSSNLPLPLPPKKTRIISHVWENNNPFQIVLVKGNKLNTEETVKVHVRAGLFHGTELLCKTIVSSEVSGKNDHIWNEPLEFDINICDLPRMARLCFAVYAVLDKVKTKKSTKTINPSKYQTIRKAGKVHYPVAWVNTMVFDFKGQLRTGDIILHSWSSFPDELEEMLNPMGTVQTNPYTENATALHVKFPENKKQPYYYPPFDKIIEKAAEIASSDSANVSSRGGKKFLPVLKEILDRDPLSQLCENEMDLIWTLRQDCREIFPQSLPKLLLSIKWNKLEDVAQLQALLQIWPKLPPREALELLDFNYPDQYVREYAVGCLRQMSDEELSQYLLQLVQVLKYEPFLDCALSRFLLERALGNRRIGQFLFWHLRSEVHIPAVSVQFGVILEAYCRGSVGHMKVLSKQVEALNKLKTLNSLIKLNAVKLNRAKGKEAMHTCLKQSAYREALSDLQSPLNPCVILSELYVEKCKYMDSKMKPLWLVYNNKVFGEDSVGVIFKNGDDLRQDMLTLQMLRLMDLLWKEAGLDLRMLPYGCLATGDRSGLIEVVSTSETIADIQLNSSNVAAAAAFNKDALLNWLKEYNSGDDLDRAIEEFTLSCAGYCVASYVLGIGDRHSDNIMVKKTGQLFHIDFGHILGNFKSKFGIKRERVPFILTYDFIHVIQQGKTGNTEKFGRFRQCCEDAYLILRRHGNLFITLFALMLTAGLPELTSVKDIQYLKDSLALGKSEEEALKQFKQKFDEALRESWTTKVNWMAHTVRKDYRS
Chain of PI3Kβ (P27986 whole entry partner, canonical isoform): as the sequence (P27986 whole entry partner, canonical isoform) above
Protocol: as §1

PI3Kα = PI3Kα (Homo sapiens, UniProt P42336); assay: in vitro PI3Kα kinase inhibition assay; assay type: biochemical
Chain of PI3Kα (P42336 whole entry): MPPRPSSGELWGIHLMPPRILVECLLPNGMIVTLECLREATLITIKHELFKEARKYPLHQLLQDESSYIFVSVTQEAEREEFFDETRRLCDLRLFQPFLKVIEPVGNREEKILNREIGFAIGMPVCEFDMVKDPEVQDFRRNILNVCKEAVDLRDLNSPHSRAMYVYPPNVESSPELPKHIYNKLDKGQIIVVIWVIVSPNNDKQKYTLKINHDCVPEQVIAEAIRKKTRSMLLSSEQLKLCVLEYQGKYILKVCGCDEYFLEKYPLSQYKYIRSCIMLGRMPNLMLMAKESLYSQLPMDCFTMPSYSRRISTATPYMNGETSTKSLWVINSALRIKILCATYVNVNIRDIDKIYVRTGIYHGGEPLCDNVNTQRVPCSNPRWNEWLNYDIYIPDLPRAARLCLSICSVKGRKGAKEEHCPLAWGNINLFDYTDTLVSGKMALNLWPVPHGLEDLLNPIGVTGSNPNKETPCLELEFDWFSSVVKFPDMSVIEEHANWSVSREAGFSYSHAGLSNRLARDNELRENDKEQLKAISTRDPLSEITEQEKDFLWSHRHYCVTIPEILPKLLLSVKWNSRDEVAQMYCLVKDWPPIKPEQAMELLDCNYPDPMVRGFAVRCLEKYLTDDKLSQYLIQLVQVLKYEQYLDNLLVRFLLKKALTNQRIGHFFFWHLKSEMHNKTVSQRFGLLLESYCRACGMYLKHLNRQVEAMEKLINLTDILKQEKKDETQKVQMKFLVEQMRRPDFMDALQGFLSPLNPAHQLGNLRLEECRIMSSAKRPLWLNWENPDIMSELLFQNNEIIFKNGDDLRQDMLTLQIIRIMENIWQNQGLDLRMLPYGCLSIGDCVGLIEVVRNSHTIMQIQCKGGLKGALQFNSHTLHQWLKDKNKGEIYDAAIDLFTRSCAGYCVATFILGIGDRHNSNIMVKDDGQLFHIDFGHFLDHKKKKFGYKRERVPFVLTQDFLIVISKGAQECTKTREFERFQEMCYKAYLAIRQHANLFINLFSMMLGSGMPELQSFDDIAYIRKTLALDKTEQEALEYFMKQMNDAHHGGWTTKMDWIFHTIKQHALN
Chain of PI3Kα (P27986 whole entry partner): as the sequence (P27986 whole entry partner, canonical isoform) above
Protocol: as §1

HL-7702 cells = assay: inhibitory activity on normal cells, HL-7702; assay type: cell-based; settings: Homo sapiens, L02
Description: as §4

MCF7 cells = assay: MTT antiproliferative assay, MCF7; assay type: cell-based; settings: Homo sapiens
Protocol: as §1

[8] = read-out: T1/2 liver microsomes

## N#Cc1c(-c2cnc(N)nc2C(F)(F)F)nc(N2CCOCC2)nc1N1CCOCC1 [Compound 17p]
hERG potassium currents
  inhibition of hERG potassium currents: no obvious inhibition
hERG
  IC50: 390 ± 30 nM
[1]; read-out: CL liver microsomes
  microsomal CLint: 10.8 µL/min/mg
[1]; [8]
  half-life: 2.13 h
A2780 cells [2]
  IC50: 850 ± 110 nM
PI3Kδ
  IC50: 15.4 ± 1.9 nM
DU145 cells
  IC50: 8770 ± 1160 nM
mTOR
  IC50: 1420 ± 184 nM
MRC-5 cells
  IC50: 8470 ± 770 nM
A2780 cells [3]
  cytotoxicity ED50 (TUNEL, logistic regression): 5.345 µM
[4]; read-out: CL liver microsomes
  microsomal CLint: 36 µL/min/mg
[4]; [8]
  half-life: 0.642 h
[5]; 3 μg/dish
  Number of bacterial colony revertant mutations (mean ± SD) TA100: 88 ± 7
[5]; 10 μg/dish
  Number of bacterial colony revertant mutations (mean ± SD) TA100: 92 ± 3
[5]; 30 μg/dish
  Number of bacterial colony revertant mutations (mean ± SD) TA100: 86 ± 4
[5]; 100 μg/dish
  Number of bacterial colony revertant mutations (mean ± SD) TA100: 91 ± 6
[5]; 300 μg/dish
  Number of bacterial colony revertant mutations (mean ± SD) TA100: 90 ± 3
[5]; 1,000 μg/dish
  Number of bacterial colony revertant mutations (mean ± SD) TA100: 91 ± 1
[5]; 5,000 μg/dish
  Number of bacterial colony revertant mutations (mean ± SD) TA100: 87 ± 1
[5]; in words
  mutagenic effect on TA100: no mutagenic effect
[6]; 3 μg/dish
  Number of bacterial colony revertant mutations (mean ± SD) TA98: 38 ± 7
[6]; 10 μg/dish
  Number of bacterial colony revertant mutations (mean ± SD) TA98: 41 ± 4
[6]; 30 μg/dish
  Number of bacterial colony revertant mutations (mean ± SD) TA98: 37 ± 11
[6]; 100 μg/dish
  Number of bacterial colony revertant mutations (mean ± SD) TA98: 43 ± 4
[6]; 300 μg/dish
  Number of bacterial colony revertant mutations (mean ± SD) TA98: 29 ± 4
[6]; 1,000 μg/dish
  Number of bacterial colony revertant mutations (mean ± SD) TA98: 44 ± 5
[6]; 5,000 μg/dish
  Number of bacterial colony revertant mutations (mean ± SD) TA98: 40 ± 4
[6]; in words
  mutagenic effect on TA98: no mutagenic effect
PI3Kγ
  IC50: 286 ± 39.6 nM
U87MG cells
  IC50: 4720 ± 370 nM
[7]; female SD rats, 2.5 mg/kg iv
  Cl_F_pred: 1.5 mL/min/kg
  AUC(0-t): 27400 ng·h/mL
  Cmax: 4280 ng/mL
  half-life: 2.79 h
[7]; female SD rats, 10 mg/kg po
  Cl_F_pred (plasma clearance): 3.3 mL/min/kg
  area under the curve: 50,618.9
  AUC(0-t): 50600 ng·h/mL
  Cmax: 4860 ng/mL
  Tmax: 3.33 h
  half-life: 2.03 h
  bioavailability: 46.2%
[7]; male SD rats, 2.5 mg/kg iv
  Cl_F_pred: 16.3 mL/min/kg
  AUC(0-t): 2690 ng·h/mL
  Cmax: 3120 ng/mL
  half-life: 0.68 h
[7]; male SD rats, 10 mg/kg po
  Cl_F_pred: 109 mL/min/kg
  AUC(0-t): 1860 ng·h/mL
  Cmax: 538 ng/mL
  Tmax: 0.67 h
  half-life: 3.19 h
  bioavailability: 17.3%
PI3Kβ
  IC50: 125 ± 10.1 nM
PI3Kα; Figure 5 activity bins, read-out: IC50 range in SAR figure (PI3Kα)
  IC50: 30 to 300 nM
PI3Kα; Table 4, read-out: IC50 PI3Kα (isoform selectivity study)
  IC50: 30.3 ± 3.5 nM
PI3Kα; mean of three independent experiments, read-out: IC50 against PI3Kα
  IC50: 32.4 ± 4.1 nM
HL-7702 cells
  IC50: 4620 ± 520 nM
MCF7 cells
  IC50: 1590 ± 80 nM

Source: publication PMC11533140 (Frontiers in Pharmacology, 2024)
